Patent US20240109863A1, “2-PYRIDONE DERIVATIVE, AND PREPARATION METHOD THEREFOR AND PHARMACEUTICAL APPLICATION THEREOF” (KPC PHARMACEUTICALS, INC, priority 2020, published 2024)

Legend:
THRβ = molecular target: T1, THRβ (Homo sapiens, UniProt P10828); assay: THRβ binding assay (time-resolved FRET coactivator peptide recruitment); type: biochemical; details: THRβ-LBD/RXRα, SRC2-2 coactivator peptide recruitment, 4 hours at room temperature
T1 construct: RXRα and THRβ-LBD Eu-anti-GST antibody with GST tag
T1 sequence (P10828 217-461 limits assumed, other chains not shown): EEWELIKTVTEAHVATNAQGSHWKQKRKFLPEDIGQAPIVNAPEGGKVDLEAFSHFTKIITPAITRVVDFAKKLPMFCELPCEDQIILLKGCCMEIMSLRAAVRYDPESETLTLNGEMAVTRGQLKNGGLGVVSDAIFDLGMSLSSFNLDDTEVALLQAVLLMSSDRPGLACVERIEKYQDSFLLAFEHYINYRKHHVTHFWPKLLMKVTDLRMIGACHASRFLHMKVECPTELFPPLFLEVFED
T1 sequence (P19793 whole entry partner, other chains not shown, the tested form may be a part): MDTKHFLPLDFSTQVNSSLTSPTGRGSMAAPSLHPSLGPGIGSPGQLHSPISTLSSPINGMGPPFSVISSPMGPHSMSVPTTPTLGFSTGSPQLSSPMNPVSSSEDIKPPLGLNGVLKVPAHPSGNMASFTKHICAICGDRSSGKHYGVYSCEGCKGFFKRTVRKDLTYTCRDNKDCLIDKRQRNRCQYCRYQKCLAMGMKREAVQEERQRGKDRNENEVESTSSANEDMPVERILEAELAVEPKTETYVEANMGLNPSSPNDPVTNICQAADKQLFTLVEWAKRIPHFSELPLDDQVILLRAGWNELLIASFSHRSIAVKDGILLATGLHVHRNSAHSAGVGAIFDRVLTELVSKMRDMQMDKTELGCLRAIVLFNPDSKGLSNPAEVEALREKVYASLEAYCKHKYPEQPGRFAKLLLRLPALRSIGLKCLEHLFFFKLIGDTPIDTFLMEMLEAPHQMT
Experimental: Experimental methods: In vitro analysis of the agonistic effect of compounds on THRβ was performed using time-resolved fluorescence resonance energy transfer coactivator peptide recruitment assays. The assay used biotin-SRC2-2 coactivator peptide, streptavidin-d2, RXRα and THRβ-LBD Eu-anti-GST antibody with GST tag. Eu-anti-GST antibody indirectly labeled THRβ-LBD by binding to the GST tag. Streptavidin-d2 indirectly labeled the SRC2-2 coactivator peptide by binding to the biotin tag. In the presence of RXRα, THRβ-LBD can form heterodimer THRβ-LBD/RXRα with it. […] According to the effect of different concentrations of the compound on the activity of THRβ, the agonistic ability of the compound can be evaluated.
The detailed procedure is as follows: • a. 100× reference compound or compound was prepared with DMSO, and equally diluted by 1:3. • b. 100× gradiently diluted reference compound or compound was diluted with 1× reaction buffer to 4×, which was then added to an assay plate. • c. A mixed solution of 4× THRβ-LBD and 4× RXRα was prepared with 1× reaction buffer, and added to the assay plate. • d. A mixed solution of 2× biotin-SRC2-2, 2× Eu-anti-GST, and 2× streptavidin-d2 was prepared with 1× reaction buffer, and added to the assay plate. • e. The assay plate was centrifuged at 1000 rpm for 1 min, and incubated at room temperature in the dark for 4 hours. • f.

THRα = molecular target: T2, THRα (Homo sapiens, UniProt P10827); assay: THRα binding assay (as the THRβ assay, THRβ replaced with THRα); type: biochemical; details: for EC50: THRα in place of THRβ; for THRα/β selectivity (fold): ratio of THRα EC50 to THRβ EC50
T2 construct: GST
T2 sequence (P10827 1-410 isoform P10827-2, other chains not shown): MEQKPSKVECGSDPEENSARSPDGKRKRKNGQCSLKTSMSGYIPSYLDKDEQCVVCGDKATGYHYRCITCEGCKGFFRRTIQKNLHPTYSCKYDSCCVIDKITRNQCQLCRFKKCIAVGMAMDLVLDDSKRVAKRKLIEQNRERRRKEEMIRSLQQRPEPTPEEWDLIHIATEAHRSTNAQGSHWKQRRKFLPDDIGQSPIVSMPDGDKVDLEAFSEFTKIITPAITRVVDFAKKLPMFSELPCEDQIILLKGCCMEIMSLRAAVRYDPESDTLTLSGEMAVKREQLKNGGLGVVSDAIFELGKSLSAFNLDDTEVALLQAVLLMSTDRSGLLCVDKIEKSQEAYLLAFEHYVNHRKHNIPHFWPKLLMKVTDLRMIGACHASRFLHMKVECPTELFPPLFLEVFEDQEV
T2 sequence (P19793 whole entry partner, other chains not shown): as the sequence (P19793 whole entry partner, other chains not shown, the tested form may be a part) above

Row | EC50 (THRβ) | EC50 (THRα) | THRα/β selectivity (fold) (THRα) | SMILES
1 | 3650 nM |  |  | N#Cc1nn(-c2cc(Cl)c(Oc3ccc(=O)[nH]c3)c(Cl)c2)c(=O)[nH]c1=O [Example 2, 2-(3,5-Dichloro-4-((6-oxo-1,6-dihydropyridin-3-yl)oxy)phenyl)-3,5-dioxo-2,3,4,5-tetra hydro-1H-1,2,4-triazine-6-carbonitrile]
2 | 100 nM | 2030 nM | 20.3 fold | CC(C)Cn1cc(Oc2c(Cl)cc(-n3nc(C#N)c(=O)[nH]c3=O)cc2Cl)ccc1=O [Example 6, 2-(3,5-Dichloro-4-[(1-(2-methylpropyl)-6-oxo-1,6-dihydropyridin-3-yl)oxy]phenyl)-3,5-dioxo-2,3,4,5-tetrahydro-1,2,4-triazine-6-carbonitrile]
3 | 40 nM |  |  | CCC(CC)n1cc(Oc2c(Cl)cc(-n3nc(C#N)c(=O)[nH]c3=O)cc2Cl)ccc1=O [Example 7, 2-(3,5-dichloro-4-((6-oxo-1-(pentan-3-yl)-1,6-dihydropyridin-3-yl)oxy)phenyl)-3,5-dioxo-2,3,4,5-tetrahydro-1,2,4-triazine-6-carbonitrile]
4 | 431 nM |  |  | COCCn1cc(Oc2c(Cl)cc(-n3nc(C#N)c(=O)[nH]c3=O)cc2Cl)ccc1=O [Example 8, 2-(3,5-Dichloro-4-((1-(2-methoxyethyl)-6-oxo-1,6-dihydropyridin-3-yl)oxy)phenyl) -3,5-dioxo-2,3,4,5-tetrahydro-1,2,4-triazine-6-carbonitrile]
5 | 22 nM |  |  | N#Cc1nn(-c2cc(Cl)c(Oc3ccc(=O)n(C4=CCCCC4)c3)c(Cl)c2)c(=O)[nH]c1=O [Example 13, 2-(3,5-Dichloro-4-((1-(cyclohex-1-en-1-yl)-6-oxo-1,6-dihydropyridin-3-yl)oxy)phenyl) -3,5-dioxo-2,3,4,5-tetrahydro-1,2,4-triazine-6-carbonitrile]
6 | 1430 nM |  |  | Cc1cc(Oc2c(Cl)cc(-n3nc(C#N)c(=O)[nH]c3=O)cc2Cl)cn(C2CC2)c1=O [Example 18, 2-(3,5-Dichloro-4-((1-cyclopropyl-5-methyl-6-oxo-1,6-dihydropyridin-3-yl)oxy)phenyl) -3,5-dioxo-2,3,4,5-tetrahydro-1,2,4-triazine-6-carbonitrile]
7 | 1340 nM |  |  | CC(C)n1cc(Oc2c(Cl)cc(-n3nc(C#N)c(=O)[nH]c3=O)cc2Cl)cc(C2CC2)c1=O [Example 19, 2-(3,5-Dichloro-4-((5-cyclopropyl-1-isopropyl-6-oxo-1,6-dihydropyridin-3-yl)oxy)phenyl)-3,5-dioxo-2,3,4,5-tetrahydro-1,2,4-triazine-6-carbonitrile]
8 | 26 nM | 2690 nM | 103.3 fold | N#Cc1nn(-c2cc(Cl)c(Oc3ccc(=O)n(-c4cccc(C(F)(F)F)c4)c3)c(Cl)c2)c(=O)[nH]c1=O [Example 23, 2-(3,5-dichloro-4-((6-oxo-1-(3-(trifluoromethyl)phenyl)-1,6-dihydropyridin-3-yl)oxy)phenyl)-3,5-dioxo-2,3,4,5-tetrahydro-1,2,4-triazine-6-carbonitrile]
9 | 23 nM | 810 nM | 35.2 fold | N#Cc1nn(-c2cc(Cl)c(Oc3ccc(=O)n(-c4cccc(OC(F)(F)F)c4)c3)c(Cl)c2)c(=O)[nH]c1=O [Example 24, 2-(3,5-Dichloro-4-((6-oxo-1-(3-(trifluoromethoxy)phenyl)-1,6-dihydropyridin-3-yl)oxy)phenyl)-3,5-dioxo-2,3,4,5-tetrahydro-1,2,4-triazine-6-carbonitrile]
10 | 60 nM |  |  | Cc1cccc(-n2cc(Oc3c(Cl)cc(-n4nc(C#N)c(=O)[nH]c4=O)cc3Cl)ccc2=O)c1 [Example 26, 2-(3,5-Dichloro-4-((6-oxo-1-(3-methylphenyl)-1,6-dihydropyridin-3-yl)oxy)phenyl)-3,5-dioxo-2,3,4,5-tetrahydro-1,2,4-triazine-6-carbonitrile]
11 | 136 nM |  |  | Cc1ccccc1-n1cc(Oc2c(Cl)cc(-n3nc(C#N)c(=O)[nH]c3=O)cc2Cl)ccc1=O [Example 27, 2-(3,5-Dichloro-4-((6-oxo-1-(o-methylphenyl)-1,6-dihydropyridin-3-yl)oxy)phenyl)-3,5-dioxo-1,2,3,4-4,5-tetrahydro-1,2,4-triazine-6-carbonitrile]
12 | 23 nM | 1140 nM | 49.5 fold | N#Cc1cccc(-n2cc(Oc3c(Cl)cc(-n4nc(C#N)c(=O)[nH]c4=O)cc3Cl)ccc2=O)c1 [Example 28, 2-(3,5-Dichloro-4-((1-(3-cyanophenyl)-6-oxo-1,6-dihydropyridin-3-yl)oxy)phenyl)-3,5- -dioxo-1,2,3,4-4,5-tetrahydro-1,2,4-triazine-6-carbonitrile]
13 | 297 nM |  |  | N#Cc1nn(-c2cc(Cl)c(Oc3ccc(=O)n(-c4cc(F)cc(F)c4)c3)c(Cl)c2)c(=O)[nH]c1=O [Example 29, 2-(3,5-Dichloro-4-((1-(3,5-difluorophenyl)-6-oxo-1,6-dihydropyridin-3-yl)oxy)phenyl) -3,5-dioxo-2,3,4,5-tetrahydro-1,2,4-triazine-6-carbonitrile]
14 | 150 nM |  |  | Cc1cc(C)cc(-n2cc(Oc3c(Cl)cc(-n4nc(C#N)c(=O)[nH]c4=O)cc3Cl)ccc2=O)c1 [Example 30, 2-(3,5-dichloro-4-((1-(3,5-dimethylphenyl)-6-oxo-1,6-dihydropyridin-3-yl)oxy)phenyl)-3,5-dioxo-2,3,4,5-tetrahydro-1,2,4-triazine-6-carbonitrile]
15 | 81 nM |  |  | N#Cc1nn(-c2cc(Cl)c(Oc3ccc(=O)n(-c4cccc(C5CC5)c4)c3)c(Cl)c2)c(=O)[nH]c1=O [Example 31, 2-(3,5-dichloro-4-((1-(3-cyclopropylphenyl)-6-oxo-1,6-dihydropyridin-3-yl)oxy)phenyl)-3,5-dioxo-2,3,4,5-tetrahydro-1,2,4-triazine-6-carbonitrile]
16 | 100 nM |  |  | N#Cc1nn(-c2cc(Cl)c(Oc3ccc(=O)n(-c4ccsc4)c3)c(Cl)c2)c(=O)[nH]c1=O [Example 32, 2-(3,5-Dichloro-4-((6-oxo-1-(thiophen-3-yl)-1,6-dihydropyridin-3-yl)oxy)phenyl)-3,5-dioxo-2,3,4,5-tetrahydro-1,2,4-triazine-6-carbonitrile]
17 | 119 nM |  |  | N#Cc1nn(-c2cc(Cl)c(Oc3ccc(=O)n(-c4cccs4)c3)c(Cl)c2)c(=O)[nH]c1=O [Example 33, 2-(3,5-Dichloro-4-((6-oxo-1-(thien-2-yl)-1,6-dihydropyridin-3-yl)oxy)phenyl)-3,5-diox o-2,3,4,5-tetrahydro-1,2,4-triazine-6-carbonitrile]
18 | 435 nM |  |  | N#Cc1nn(-c2cc(Cl)c(Oc3ccc(=O)n(-c4nccs4)c3)c(Cl)c2)c(=O)[nH]c1=O [Example 34, 2-(3,5-dichloro-4-((6-oxo-1-(thiazol-2-yl)-1,6-dihydropyridin-3-yl)oxy)phenyl)-3,5-dioxo-2,3,4,5-tetrahydro-1,2,4-triazine-6-carbonitrile]
19 | 18 nM | 351 nM | 19.5 fold | Cc1nn(-c2cc(Cl)c(Oc3ccc(=O)n(-c4ccccc4)c3)c(Cl)c2)c(=O)[nH]c1=O [Example 36, 2-(3,5-Dichloro-4-((6-oxo-1-phenyl-1,6-dihydropyridin-3-yl)oxy)phenyl)-6-methyl-1,2,4-triazine-3,5(2H, 4H)-dione]
20 | 92 nM | 9260 nM | 100.6 fold | O=c1[nH]c(=O)n(-c2cc(Cl)c(Oc3ccc(=O)n(-c4ccc(F)cc4)c3)c(Cl)c2)nc1CF [Example 37, 2-(3,5-dichloro-4-((1-(4-fluorophenyl)-6-oxo-1,6-dihydropyridin-3-yl)oxy)phenyl)-6-(fluoromethyl)-1,2,4-triazine-3,5(2H, 4H)-dione]
21 | 3 nM | 85 nM | 28.3 fold | O=c1[nH]c(=O)n(-c2cc(Cl)c(Oc3ccc(=O)n(-c4cccc(F)c4)c3)c(Cl)c2)nc1CF [Example 38, 2-(3,5-dichloro-4-((1-(3-fluorophenyl)-6-oxo-1,6-dihydropyridin-3-yl)oxy)phenyl)-6-(fluoromethyl)-1,2,4-triazine-3,5(2H, 4H)-dione]
22 | 8 nM |  |  | O=c1[nH]c(=O)n(-c2cc(Cl)c(Oc3ccc(=O)n(-c4cccs4)c3)c(Cl)c2)nc1CF [Example 43, 2-(3,5-Dichloro-4-((6-oxo-1-(thiophen-2-yl)-1,6-dihydropyridin-3-yl)oxy)phenyl)-6-(fluoromethyl)-1,2,4-triazine-3,5(2H, 4H)-dione]
23 | 3 nM |  |  | CC(C)n1cc(Oc2c(Cl)cc(-n3nc(CF)c(=O)[nH]c3=O)cc2Cl)ccc1=O [Example 44, 2-(3,5-Dichloro-4-((1-isopropyl-6-oxo-1,6-dihydropyridin-3-yl)oxy)phenyl)-6-(fluoromethyl)-1,2,4-triazine-3,5(2H, 4H)-dione]
24 | 32 nM |  |  | COCCn1cc(Oc2c(Cl)cc(-n3nc(CF)c(=O)[nH]c3=O)cc2Cl)ccc1=O [Example 45, 2-(3,5-Dichloro-4-((1-(2-methoxyethyl)-6-oxo-1,6-dihydropyridin-3-yl)oxy)phenyl)-6-(fluoromethyl)-1,2,4-triazine-3,5(2H, 4H)-dione]
